In article PMC4438233, “Antibacterial effects of Traditional Chinese Medicine monomers against Streptococcus pneumoniae via inhibiting pneumococcal histidine kinase (VicK)” (Frontiers in Microbiology, 2015):
Read-outs that look alike come from different tables or passages of the source.

Tests used:
S. aureus = test: Checkerboard test with penicillin against S. aureus; type: cell-based, Staphylococcus aureus; details: for MIC: Staphylococcus aureus; for reduction of MIC in combination with PEN: four strains of MRSA
Procedure: Minimum inhibitory concentration (MIC) assays for the antibacterial activities of the compounds were performed according to the standard […] method of the Clinical and Laboratory Standards Institute of America. MIC testing of drug-resistant S. pneumoniae, drug-resistant S. aureus, streptococci and antimicrobial combination was also performed using the same method. Briefly, the drugs were serially diluted 2-fold into eight wells with C+Y medium, yielding final concentrations ranging from […]. Then 10^6 CFU bacteria were added to each well. Inoculated medium containing 1% DMSO served as a bacterial growth control, whereas uninoculated medium served as a sterility control. The plates were incubated at 37°C for 12–16 h. […] The experiment was repeated three times.
The antimicrobial effects of different combinations of two antimicrobial agents were assayed using the checkerboard test (Bajaksouzian et al., [1997]). Each experiment was repeated thrice. The in vitro interaction between the five drugs with PEN was quantified by the fractional inhibitory concentration (FIC). The FIC index (FICI) was calculated using the following formula:
(2) FIC=FICA+FICB=[A]/MICA+[B]/MICB
where [A] and [B] are the concentrations of drugs A and B, respectively; MICA and FICA are the MIC and FIC of drug A for the organism, respectively; and MICB, and FICB are the MIC and FIC of drug B for the organism, respectively. The FIC index obtained was interpreted as follows: =0.5, synergy; FIC > 2.0, antagonism (Gupta and Kohli, [2003]).

[1] = system: S. pneumoniae NCTC7466 biofilm; test: Biofilm-killing assay (crystal violet); type: cell-based, Streptococcus pneumoniae; details: crystal violet staining; 15.6–2000 μM; MIC or sub-MIC levels
Procedure: Biofilm formation was detected using a semiquantitative plate assay (Moscoso et al., [2006]). 10^6 CFU of D39 was incubated in C+Y medium for 6 h in a 96-well plate at 37°C. Then removed the planktonic cells, fresh C+Y medium containing the serially diluted drugs was added to each well and incubated for another 12 h at 37°C. The wells were washed gently three times with phosphate-buffered saline (PBS) and then stained with 1% (w/v) crystal violet. 200 μL methanol was added to dissolve the precipitate and determine the absorbance of the wells at 590 nm using a spectrophotometer (DTX880, Beckman Coulter, USA). The values of biofilm formation were normalized for absorbance, and the percentages were calculated in relation to control. The experiment was repeated twice.

Cytotoxicity assay (MTT) = type: cell-based; details: African green monkey
Procedure: The cytotoxicity of the drugs to Vero cells (African green monkey kidney cells) was detected as previously described (Huang et al., [2012]) with minor modifications. In 96-well cell culture plates, the cells (~10^3 cells per well) were exposed to the serially diluted drugs for 48 h. Then, relative cell numbers were assayed by co-incubation with 3-(4, 5-dimethylthiazol-2-yl)-2, 5-diphenyltetrazolium bromide for 4 h at 37°C in 5% CO2. Purple formazan salts were dissolved with DMSO after incubation. The absorbance of each well was measured at 595 nm and then converted to percentages of the control (cells treated with 1% DMSO). The concentration of the derivatives with 50% cytotoxicity for Vero cells (CC50) was calculated using GraphPad Prism 5 (San Diego, CA).

Structure (SMILES)	MIC (S. aureus; ATCC29213, S. aureus ATCC29213, agent alone, read-out: MIC, Alone)	MIC (S. aureus; MRSA8506305, agent alone, read-out: MIC, Alone)	MIC (S. aureus; MRSA8548991, agent alone, read-out: MIC, Alone)	MIC (S. aureus; MRSA, MRSA 8569082, agent alone, read-out: MIC, Alone)	reduction of MIC in combination with PEN (S. aureus)	inhibition of biofilm formation [1]	CC50 at 48 h (Cytotoxicity assay (MTT); Vero cells (African green monkey kidney cells))	MIC, Alone (S. aureus; MRSA8548991, agent alone)	MIC (S. aureus; ATCC29213, read-out: MIC, Alone)	MIC (S. aureus; MRSA, read-out: MIC, Alone)	MIC (S. aureus; read-out: MIC, Alone)	CC50 at 48 h (Cytotoxicity assay (MTT); Vero cells)
CCCCCCCCCCCCOC(=O)c1cc(O)c(O)c(O)c1 [Compound 5, Dodecyl gallate]	168 µg/mL	337 µg/mL	84.4 µg/mL	84.4 µg/mL	2 fold	inhibit biofilm formation at sub-MIC	6.45 mM	–	–	–	–	–
CC(C)=CCCC1=CC(=O)c2c(O)ccc(O)c2C1=O [Compound 3, Deoxyshikonin]	–	–	–	–	2 fold	inhibit biofilm formation at sub-MIC	–	34 µg/mL	34 µg/mL	68 µg/mL	34 µg/mL	4.68 mM
